Measurements from patent publication US20060276465A1, “1,2-di(cyclic) substituted benzene compounds” (Eisai R&D Management Co., Ltd., priority 2003, published 2006).

Tests used:
Jurkat cells = test: Jurkat cell adhesion system (adhesion to immobilized human fibronectin, PMA-stimulated); format: cell-based; settings: concentration inhibiting by 50% the PMA-stimulated increase in the number of adhered Jurkat cells on human fibronectin; 45-60 minutes, 37° C.
Protocol: Evaluation of Compounds in Jurkat Cell Adhesion System
<Immobilization of Human Fibronectin in 96-Well Plate>
Human fibronectin (Becton Dickinson Biosciences) was diluted with phosphate-buffered saline (hereinafter abbreviated as PBS; Sigma) to 0.1-0.01 μg/ml, and the diluted solution was added to a 96-well plate (Becton Dickinson) at 50 μl/well, and allowed to stand overnight at 4° C. On the following day, the supernatant was removed from the plate, and then PBS containing 1% bovine serum albumin (hereinafter abbreviated as BSA; Sigma) was added thereto at 100 μl/well and incubation was performed at 37° C. for 2 hours in a CO2 incubator (Hirasawa).
The supernatant was removed from each plate and Jurkat cells suspended in RPMI-1640 (Sigma) containing 1 mg/ml BSA were added at 80 μl/well for 2.5×10^5 cells/well. The compound diluted to different concentrations with RPMI-1640 containing 1 mg/ml BSA was immediately added at 10 μl/well, and then 100 nM phorbol myristate acetate (hereinafter abbreviated as PMA; Sigma) in RPMI-1640 containing 1 mg/ml BSA was added at 10 μl/well and the plate was incubated in a CO2 incubator at 37° C. for 45-60 minutes. The supernatant was removed from the plate and each well was washed several times with 100 μl/well of RPMI-1640, after which 50 mM citrate buffer (pH 5.0) containing 3.75 mM p-nitrophenol-N-acetyl-β-D-glucosaminide (Sigma) and 0.25% Triton X-100 (Sigma) were added at 60 μl/well, and the mixture was placed in a CO2 incubator and incubated at 37° C. for 45 minutes. After incubation, 50 mM glycine buffer (pH 10.4) containing 5 mM EDTA was added at 90 μl/well, and the absorbance at 405 nm was measured with an EL340 Automated Microplate Reader (BIO-TEK) to determine the adhered cell count. The concentration of each compound which inhibited the increase in the number of adhered cells by the PMA-stimulation by 50% was recorded as the IC50 (μM).

[1] = test system: human peripheral blood neutrophils; test: Human peripheral blood neutrophil adhesion system (adhesion to immobilized HUVEC, PMA-stimulated); format: cell-based; settings: 0.75 h, concentration inhibiting by 50% the PMA-stimulated increase in the number of adhered BCECF-AM labeled neutrophils on HUVEC immobilized plate, 45 minutes, 37° C.
Protocol: Evaluation of Compounds in Human Peripheral Blood Neutrophil Adhesion System
<Preparation of Human Peripheral Blood Neutrophils>
To a plastic centrifugation tube containing 100 units of heparin sodium (Shimizu Pharmaceutical) was added 25 ml of fresh blood sampled from a healthy human. After adding and mixing therewith 8 ml of physiological saline (Otsuka Pharmaceutical) containing 6% Dextran (Nacalai), the mixture was allowed to stand at room temperature for 45 minutes for sedimentation of the erythrocytes. The resultant supernatant was transferred to another plastic centrifugation tube and combined with an equivalent volume of phosphate-buffered saline (hereinafter abbreviated as PBS; Sigma), and then centrifuged at 1600 rpm for 7 minutes at room temperature. The obtained hematocyte fraction was suspended in 4 ml of PBS, and the suspension was superposed on 4 ml of Ficoll-Paque™ PLUS (Amersham Biosciences). The resultant bilayer liquid was centrifuged at 2000 rpm for 30 minutes at room temperature, after which the supernatant was removed and the precipitate was suspended in 10 ml of PBS and centrifuged at 1200 rpm for 7 minutes, and the supernatant was removed. The resulting precipitate was suspended in 0.5 ml of PBS again, and then 10 ml of distilled water (Otsuka Pharmaceutical) was added, 0.5 ml of an aqueous solution containing 3 M NaCl was immediately added to restore isotonicity, the mixture was centrifuged at 1200 rpm for 7 minutes, and the obtained precipitate was suspended in PBS containing 1 mg/ml bovine serum albumin (hereinafter abbreviated as BSA; Sigma) again and stored in ice until being used for the experiment.
<Fluorescent Labeling of Human Peripheral Blood Neutrophils>
The obtained neutrophils were suspended in PBS containing 1 mg/ml BSA at 2×10^7 cells/ml. BCECF-AM (Dojin) was added to a final concentration of 5 μM, and the mixture was incubated at 37° C. for 45 minutes. It was then rinsed twice with PBS containing 1 mg/ml BSA by centrifugation, suspended again in PBS containing 1 mg/ml BSA at 5×10^7 cells/ml, and stored in ice until use.
<Preparation of HUVEC Immobilized Plate>
Human umbilical vein endothelial cells (hereinafter abbreviated as HUVEC) were suspended in MCDB131 medium (Chlorella Industries) containing 10% fetal calf serum and 30 μg/ml endothelial cell growth supplement (Becton Dickinson Bioscience). The suspension was added at 7.5×10^3 cells/well to a 96-well plate (Iwaki) immobilized with type I collagen, and cultured for 3 days in a CO2 incubator (Hirasawa). Upon confirming confluency of the cells, the supernatant was discarded, the plate was rinsed twice with PBS, and then PBS containing 0.1% glutaraldehyde (Kanto Kagaku) was added at 100 μl/well and the HUVECs were immobilized for 5 minutes. The supernatant was discarded and the plate was washed twice with PBS, and then PBS was added at 100 μl/well and the mixture was stored at 4° C. until use.
To 6.5 ml of RPMI-1640 medium (Sigma) containing 1 mg/ml of BSA were added 0.5 ml of a suspension of BCECF-AM labeled neutrophils at 5×10^7/ml stored in ice, which was mixed, and the mixture was added at 80 μl/well to a HUVEC immobilized plate. To this plate were immediately added 10 μl/well of a solution of the compound diluted at different concentrations with RPMI-1640 containing 1 mg/ml BSA, and 10 μl/well of 100 nM phorbol myristate acetate (hereinafter abbreviated as PMA; Sigma) in RPMI-1640 containing 1 mg/ml BSA, and the mixture was incubated in a CO2 incubator at 37° C. for 45 minutes. The supernatant was removed from the plate, which was then washed several times with RPMI-1640 at 100 μl/well, and then PBS containing 0.1% NP-40 (Calbiochem) was added thereto at 100 μl/well and the fluorescent intensity was measured with and ARVO™SX 1420 multi label counter (Wallac) to determine the number of adhered cells. […]

Balb/c mice = test: DSS-induced colitis model; format: in vivo; settings: male Balb/c mice; 1-3% DSS for 5-7 days; 30 mg/kg orally once a day for 5-7 successive days
Description: Evaluation of Compounds in DSS-Induced Colitis Model
A 1-3% solution of dextran sulfate sodium (hereinafter abbreviated as DSS; ICN) in purified water (Otsuka Pharmaceutical) was fed freely to 6- to 7-week-old male Balb/c mice (Charles River Japan) for 5-7 days to induce colitis. Disease Activity Index (hereinafter abbreviated as DAI) scored based on fecal hardness, blood content in feces and body weight change, the number of neutrophils infiltrating the colon and the length of the colon were used as indexes to evaluate compounds. Each compound was suspended or dissolved in an aqueous solution containing 0.5% methyl cellulose (Wako), and orally administered at 30 mg/kg once a day, for 5-7 successive days.

IC50 (Jurkat cells): 6.2 µM
IC50 [1]: 11.6 µM
SMILES: COCCN1CCN(c2ccccc2C2CCC(C(C)(C)C)CC2)CC1.Cl (stereo not drawn) [Example 19, 1-[2-(4-t-Butylcyclohexyl)phenyl]-4-(2-methoxyethyl)piperazine hydrochloride]
improvement in comparison with the DSS control group (DAI, number of neutrophils infiltrating the colon, length of the colon) (Balb/c mice): particularly good improvement
